Results from EP4810040A2, “INHIBITORS OF APOL1 AND METHODS OF USING SAME” (priority 2020, dated 2022).
Like-named read-outs stand apart in the source and are kept apart here.

Target: T1, APOL1 G1 (Homo sapiens, UniProt O14791, I384M/S342G)
T1 sequence (O14791 28-398 S342G/I384M): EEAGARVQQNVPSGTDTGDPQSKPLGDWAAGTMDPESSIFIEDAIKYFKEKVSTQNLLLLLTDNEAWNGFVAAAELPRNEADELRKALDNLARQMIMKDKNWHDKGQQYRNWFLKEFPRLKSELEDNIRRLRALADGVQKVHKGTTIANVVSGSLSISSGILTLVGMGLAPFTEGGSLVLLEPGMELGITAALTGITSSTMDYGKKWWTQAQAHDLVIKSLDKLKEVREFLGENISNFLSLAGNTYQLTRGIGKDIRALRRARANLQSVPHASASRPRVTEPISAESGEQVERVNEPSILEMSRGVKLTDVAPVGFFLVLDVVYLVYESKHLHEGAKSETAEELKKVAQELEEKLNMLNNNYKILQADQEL
Experiment: MultiTox-Fluor Multiplex Cytotoxicity Assay, tet-inducible APOL1 G1 T-REx-HEK293 cells
Type: cell-based
Design: expressed in transfected cells; host or cells: T-REx HEK293, clone G1 DC3.25 (pAAVS1-Puro-APOL1 G1)
Conditions: for IC90: read-out: Multi-Tox Assay IC90; for IC50: IP50 = IC50 for cell proliferation
Summary of the method: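 Over 24 h at 37 °C, compounds (10-point 3-fold series from 10 µM, duplicate) were co-incubated with 50 ng/mL tetracycline inducing APOL1 G1 in T-REx-HEK293 cells. Viability/cytotoxicity measured by MultiTox-Fluor as dead-to-live fluorescence ratio, expressed as percent of control between uninduced and induced wells and fitted.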

[1] = HEK293, Multi-Tox Assay, APOL1 variant (G0/G1/G2) of the HEK293 cells not given
[2] = Multi-Tox Assay, APOL1 variant not given
[3] = Multi-Tox Assay, APOL1 variant (G0/G1/G2) not stated in Table 46
[4] = Multi-Tox Assay, APOL1 variant not stated in Table 46

SMILES	IC90 [1] [nM]	Multi-Tox Assay Max Activity (%) [2] [%]	IC90 [3] [nM]	Multi-Tox Assay Max Activity (%) [4] [%]	IC50 [4] [nM]
CCC(O)Cn1cc([C@@H]2C[C@]3(C[C@H](C)N2)OCC(F)(F)c2cc(Cl)sc23)nn1 (stereo partly drawn) [Compound 325]	50 to 500	98.0			
Cc1c(Cn2cc([C@@H]3C[C@]4(C[C@H](C)N3)OCC(F)(F)c3cc(Cl)sc34)nn2)cnn1C [Compound 326]	50 to 500	97.0			
CC(C)N1CC(Cn2cc([C@@H]3C[C@]4(C[C@H](C)N3)OCC(F)(F)c3cc(Cl)sc34)nn2)CC1=O (stereo partly drawn) [Compound 327]	50 to 500	98.0			
C[C@H]1C[C@@]2(C[C@@H](c3cn(CCC(N)=O)nn3)N1)OCC(F)(F)c1cc(Cl)sc12 [Compound 328]	50 to 500	100.0			
C[C@H]1C[C@@]2(C[C@@H](c3cn(CC4(F)CCOCC4)nn3)N1)OCC(F)(F)c1cc(Cl)sc12 [Compound 329]	> 500	90.0			
CCn1cc(Cn2cc([C@@H]3C[C@]4(C[C@H](C)N3)OCC(F)(F)c3cc(Cl)sc34)nn2)cn1 [Compound 330]	50 to 500				
C[C@H]1C[C@@]2(C[C@@H](c3cn(Cc4cocn4)nn3)N1)OCC(F)(F)c1cc(Cl)sc12 [Compound 331]	50 to 500	98.0			
C[C@H]1C[C@@]2(C[C@@H](c3cn(Cc4ccccn4)nn3)N1)OCC(F)(F)c1cc(Cl)sc12 [Compound 332]	50 to 500	96.0			
COc1cc(F)cc(Cn2cc([C@@H]3C[C@]4(C[C@H](C)N3)OCC(F)(F)c3cc(Cl)sc34)nn2)c1 [Compound 333]	50 to 500	97.0			
Cc1ccc(Cn2cc([C@@H]3C[C@]4(C[C@H](C)N3)OCC(F)(F)c3cc(Cl)sc34)nn2)nc1 [Compound 334]	> 500	96.0			
COc1ccc(Cn2cc([C@@H]3C[C@]4(C[C@H](C)N3)OCC(F)(F)c3cc(Cl)sc34)nn2)cc1 [Compound 335]	> 500	96.0			
Cc1cc(Cn2cc([C@@H]3C[C@]4(C[C@H](C)N3)OCC(F)(F)c3cc(Cl)sc34)nn2)ccn1 [Compound 336]	50 to 500				
Cc1nc(Cn2cc([C@@H]3C[C@]4(C[C@H](C)N3)OCC(F)(F)c3cc(Cl)sc34)nn2)oc1C [Compound 337]	50 to 500				
Cc1nnc(Cn2cc([C@@H]3C[C@]4(C[C@H](C)N3)OCC(F)(F)c3cc(Cl)sc34)nn2)[nH]1 [Compound 339]	50 to 500	97.0			
COCCOCCn1cc([C@@H]2C[C@]3(C[C@H](C)N2)OCC(F)(F)c2cc(Cl)sc23)nn1 [Compound 340]	50 to 500	98.0			
Cc1nccn1CCCn1cc([C@@H]2C[C@]3(C[C@H](C)N2)OCC(F)(F)c2cc(Cl)sc23)nn1 [Compound 341]	> 500	98.0			
COCC(O)Cn1cc([C@@H]2C[C@]3(C[C@H](C)N2)OCC(F)(F)c2cc(Cl)sc23)nn1 (stereo partly drawn) [Compound 342]	50 to 500	98.0			
C[C@H]1C[C@@]2(C[C@@H](c3cn(CC4CCCCO4)nn3)N1)OCC(F)(F)c1cc(Cl)sc12 (stereo partly drawn) [Compound 343]	50 to 500	97.0			
C[C@H]1C[C@@]2(C[C@@H](c3cn(CCCS(C)(=O)=O)nn3)N1)OCC(F)(F)c1cc(Cl)sc12 [Compound 344]	50 to 500				
CC(C)C(=O)NCCn1cc([C@@H]2C[C@]3(C[C@H](C)N2)OCC(F)(F)c2cc(Cl)sc23)nn1 [Compound 345]	50 to 500				
C[C@H]1C[C@@]2(C[C@@H](c3cn(Cc4nc5ncccc5[nH]4)nn3)N1)OCC(F)(F)c1cc(Cl)sc12 [Compound 346]	50 to 500				
C[C@H]1C[C@@]2(C[C@@H](c3cn(Cc4ccccc4S(C)(=O)=O)nn3)N1)OCC(F)(F)c1cc(Cl)sc12 [Compound 347]	50 to 500	96.0			
COc1ccc(C(O)Cn2cc([C@@H]3C[C@]4(C[C@H](C)N3)OCC(F)(F)c3cc(Cl)sc34)nn2)cc1 (stereo partly drawn) [Compound 348]	> 500	97.0			
C[C@H]1C[C@@]2(C[C@@H](c3cn(Cc4n[nH]c5ccccc45)nn3)N1)OCC(F)(F)c1cc(Cl)sc12 [Compound 349]	> 500	91.0			

SMILES	IC90 [1] [nM]	Multi-Tox Assay Max Activity (%) [2] [%]	IC90 [3] [nM]	Multi-Tox Assay Max Activity (%) [4] [%]	IC50 [4] [nM]
C[C@H]1C[C@@]2(C[C@@H](c3cn(Cc4ncnc5[nH]ccc45)nn3)N1)OCC(F)(F)c1cc(Cl)sc12 [Compound 350]	50 to 500				
Cc1cc(C)nc(CCn2cc([C@@H]3C[C@]4(C[C@H](C)N3)OCC(F)(F)c3cc(Cl)sc34)nn2)c1 [Compound 351]	50 to 500	98.0			
C[C@H]1C[C@@]2(C[C@@H](c3cn(Cc4ccc(C#N)nc4)nn3)N1)OCC(F)(F)c1cc(Cl)sc12 [Compound 352]	50 to 500				
Cc1noc(C)c1Cn1cc([C@@H]2C[C@]3(C[C@H](C)N2)OCC(F)(F)c2cc(Cl)sc23)nn1 [Compound 353]	< 50	100.0			
C[C@H]1C[C@@]2(C[C@@H](c3cn(CCOc4ccccc4F)nn3)N1)OCC(F)(F)c1cc(Cl)sc12 [Compound 354]	50 to 500				
C[C@H]1C[C@@]2(C[C@@H](c3cn(Cc4ccc(S(C)(=O)=O)cc4)nn3)N1)OCC(F)(F)c1cc(Cl)sc12 [Compound 355]	50 to 500	98.0			
C[C@H]1C[C@@]2(C[C@@H](c3cn(CC4(CO)CC4)nn3)N1)OCC(F)(F)c1cc(Cl)sc12 [Compound 357]	50 to 500				
C[C@H]1C[C@@]2(C[C@@H](c3cn(Cc4cnc5cnccn45)nn3)N1)OCC(F)(F)c1cc(Cl)sc12 [Compound 358]	< 50	98.0			
C[C@H]1C[C@@]2(C[C@@H](c3cn(CCCO)nn3)N1)OCC(F)(F)c1cc(Cl)sc12 [Compound 359]	< 50	98.0			
COc1ccc(Cn2cc([C@@H]3C[C@]4(C[C@H](C)N3)OCC(F)(F)c3cc(Cl)sc34)nn2)cn1 [Compound 360]	50 to 500				
C[C@H]1C[C@@]2(C[C@@H](c3cn(CCO)nn3)N1)OCC(F)(F)c1cc(Cl)sc12 [Compound 361]			50 to 500	98.0	
COc1ccc(Cn2cc([C@@H]3C[C@]4(C[C@H](C)N3)OCC(F)(F)c3cc(Cl)sc34)nn2)cc1F [Compound 362]			50 to 500	98.0	50 to 500
C[C@H]1C[C@@]2(C[C@@H](c3cn(C[C@@H](O)CO)nn3)N1)OCC(F)(F)c1cc(Cl)sc12 [Compound 363]			50 to 500		
C[C@H]1C[C@@]2(C[C@@H](c3cn(CC(C)(C)O)nn3)N1)OCC(F)(F)c1cc(Cl)sc12 [Compound 364]			> 500	95.0	50 to 500
C[C@H]1C[C@@]2(C[C@@H](c3cn(Cc4cncs4)nn3)N1)OCC(F)(F)c1cc(Cl)sc12 [Compound 365]			50 to 500		
C[C@H]1C[C@@]2(C[C@@H](c3cn(Cc4ccc5nc(O)[nH]c5c4)nn3)N1)OCC(F)(F)c1cc(Cl)sc12 [Compound 366]			> 500	95.0	50 to 500
C[C@H]1C[C@@]2(C[C@@H](c3cn(CCC(C)(C)O)nn3)N1)OCC(F)(F)c1cc(Cl)sc12 [Compound 367]			< 50		
C[C@H]1C[C@@]2(C[C@@H](c3cn(CC4CCC(=O)NC4)nn3)N1)OCC(F)(F)c1cc(Cl)sc12 (stereo partly drawn) [Compound 368]			> 500	96.0	50 to 500
C[C@H]1C[C@@]2(C[C@@H](c3cn(CC#N)nn3)N1)OCC(F)(F)c1cc(Cl)sc12 [Compound 369]			> 500	98.0	50 to 500
CC(CO)Cn1cc([C@@H]2C[C@]3(C[C@H](C)N2)OCC(F)(F)c2cc(Cl)sc23)nn1 (stereo partly drawn) [Compound 370]			50 to 500		50 to 500
COC(=O)C1([C@@H]2C[C@]3(C[C@H](C)N2)OCCc2cc(Cl)sc23)CC1 [Compound 372, methyl 1-[(2'S,6'S,7S)-2-chloro-6'-methyl-spiro[4,5-dihydrothieno[2,3-c]pyran-7,4'-piperidine]-2'-yl]cyclopropanecarboxylate]			> 500	92.0	
C[C@H]1C[C@@]2(C[C@@H](C3(N)CC3)N1)OCCc1cc(Cl)sc12 [Compound 373, 1-[(2'S,6'S,7S)-2-chloro-6'-methyl-spiro[4,5-dihydrothieno[2,3-c]pyran-7,4'-piperidine]-2'-yl]cyclopropanamine]			50 to 500		
CC(=O)NC1([C@@H]2C[C@]3(C[C@H](C)N2)OCCc2cc(Cl)sc23)CC1 [Compound 379, N-[1-[(2'S,6'S,7S)-2-chloro-6'-methyl-spiro[4,5-dihydrothieno[2,3-c]pyran-7,4'-piperidine]-2'-yl]cyclopropyl]acetamide]			> 500	94.0	
